Results from patent publication US20050112607A1, “Rapid and sensitive detection of protein aggregation” (priority 1999, published 2005).

Legend:
[1] = Colloid/colloid linkage via biotin/streptavidin, color change; assay type: binding; conditions: streptavidin added to biotin-SAM colloids
Experimental: A set of gold colloids was derivatized with self-assembled monolayers that incorporated biotin-thiols (SAM forming species included C11, 3 ethylene glycol units, then biotin) along with C16 carboxy-terminated thiols (a mixed SAM). Streptavidin, which has four binding sites for biotin, or a random protein (GST) was added to the colloid solutions.

[2] = tested on: histidine-tagged RGD-motif-containing peptide; assay: Colloid/colloid color change assay with RGD-peptide-bound NTA-Ni colloids; assay type: binding; conditions: 100 ul or 50 ul protein per well, room temperature, after approximately 15 minutes
Experimental: (§1) 600 microliters colloids, derivatized with a self-assembled monolayer that presents nitrilo tri-acetic acid, NTA (for the capture of histidine-tagged proteins), was mixed with 60 microliters of 500 micromolar histidine-tagged RGD-motif-containing peptide. 600 microliters of a second set of NTA-Ni presenting colloids was mixed with 60 ul of a 500 uM solution of GST, an irrelevant protein, as a negative control. Colloids were spun down and resuspended in phosphate buffer to remove residual unbound protein or peptide. Endostatin and Angiostatin, two proteins implicated in angiogenesis and suspected of binding to regions of vitronectin, such as the RGD peptide, were prepared by dialysis into phoshate-buffered saline solution and then 1:10 dilution into PBS from a stock concentration of 1 mg/mL.
(§2) 400 ul phosphate buffer (pH 7.4), 200 ul either RGD-bound colloids or GST-bound colloids, and either 100 ul endostatin or angiostatin, 50 ul endostatin or angiostatin/50 ul phosphate buffer, or 100 ul phosphate buffer (as a negative control) were added to each well of a crystallization dish. Color change was monitored over time at room temperature. […] The histidine-tagged proteins were then eluted using imidazole, and the samples were analyzed by SDS-PAGE. […]

GST = GST (Schistosoma japonicum, UniProt P08515); assay: Colloid/colloid color change assay with GST-bound NTA-Ni colloids (irrelevant protein); assay type: binding; conditions: 100 ul or 50 ul protein per well, room temperature
Chain of GST (P08515 whole entry): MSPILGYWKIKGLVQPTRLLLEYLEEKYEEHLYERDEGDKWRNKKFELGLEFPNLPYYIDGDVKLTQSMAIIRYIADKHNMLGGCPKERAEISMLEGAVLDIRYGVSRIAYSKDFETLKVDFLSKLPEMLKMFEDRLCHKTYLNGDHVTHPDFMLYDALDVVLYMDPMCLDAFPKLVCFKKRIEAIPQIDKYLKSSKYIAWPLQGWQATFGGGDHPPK
Experimental: as §1, §2

resin-immobilized GST = resin-immobilized GST (Schistosoma japonicum, UniProt P08515); assay: NTA-Ni agarose resin binding, imidazole elution, SDS-PAGE (GST)
Chain of resin-immobilized GST (P08515 whole entry): as above
Experimental: (§3) 400 ul phosphate buffer (pH 7.4), 200 ul either RGD-bound colloids or GST-bound colloids, and either 100 ul endostatin or angiostatin, 50 ul endostatin or angiostatin/50 ul phosphate buffer, or 100 ul phosphate buffer (as a negative control) were added to each well of a crystallization dish. Color change was monitored over time at room temperature. […] The color change was more pronounced in the well that contained 100 ul endostatin than in the well that contained 50 ul endostatin/50 ul phospate buffer. […] Row A included colloids and angiostatin. Row B included colloids with endostatin. (Rows C and D are empty wells). Columns 1-3 have RGD peptide immobilized on the colloids. […] have an irrelevant protein, GST, immobilized on the colloid. Columns 1 and 4 contain […] of the relevant drug (endostatin or angiostatin). […] The results were verified by gel electrophoresis. The RGD peptide and histidine-tagged GST were bound to a small amount of NTA-Ni agarose resin at saturating concentration. Endostatin was incubated with the resin and allowed to bind to the protein on the resin. The histidine-tagged proteins were then eluted using imidazole, and the samples were analyzed by SDS-PAGE. […] This assay could be easily adapted for screening of drug candidates that either mimic the RGD-binding characteristic of endostatin or bind to the RGD-binding domains on endostatin. […]

[3] = tested on: resin-immobilized RGD peptide; assay: NTA-Ni agarose resin binding, imidazole elution, SDS-PAGE (RGD peptide)
Experimental: as §3

Substance: Streptavidin
- Color change of biotin-presenting colloid solution [1]: immediately turned blue

Substance: angiostatin
- Color change from red to blue of RGD-peptide-bound colloids [2]: No color change occurred
- Color change of GST-bound colloids (GST): No color change occurred

Substance: endostatin
- Binding to resin-immobilized GST (SDS-PAGE) (resin-immobilized GST): did not bind to the resin-immobilized GST
- Color change from red to blue of RGD-peptide-bound colloids [2]: a color change from red to blue was visible
- Binding to resin-immobilized RGD peptide (SDS-PAGE) [3]: bound to the resin-immobilized RGD peptide
- Color change of GST-bound colloids (GST): No color change occurred
